The test system of this experiment is AP-1 induced transcriptional activity. Briefly: Cellular Transrepressional Assay (AP-1 luciferase reporter in A549 cell, PMA activated). To be noted: pAP-1-Luc; for Emax / AP-1 Max % inh (Cellular Transrepression Assay): maximum inhibition, PMA; for Emax: read-out: AP-1 Max % inh (Cellular Transrepression Assay); for EC50: 10 ng/ml PMA, 7 hours, read-out: AP-1 EC50, nM (Cellular Transrepression Assay). Type of experiment: cell-based. On the procedure:
Cellular Transrepressional Assay
To measure the ability of test molecules to inhibit AP-1 induced transcriptional activity we utilized an A549 cell which was stably transfected with a plasmid containing 7×AP-1 DNA binding sites (pAP-1-Luc plasmid, Stratagene Co. La Jolla, Calif.) followed by the gene for luciferase. Cells were activated with 10 ng/ml of phorbol myristic acid (PMA) plus or minus test molecules for 7 hours. After 7 hours a luciferase reagent was added to measure luciferase enzymatic activity in the cell. After a 10 minute incubation of luciferase reagent with cells, luminescence was measured in a TopCount luminescence counter. Repression of AP-1 activity was calculated as the percentage decrease in the signal induced by PMA alone. Test molecules were analyzed in the concentration range from 0.1 nM to 40 μM. EC50s were determined by using standard curve fitting methods such as Excel fit (Microsoft Co.). An EC50 is the test molecule concentration at which there is a 50% repression of the maximal inhibition of transcription, i.e. a 50% reduction of AP-1 activity.

Like-named read-outs stand apart in the source and are kept apart here.

As a reminder, the EC50 is the concentration that produces a half-maximal response.

In the case of `CC(C)(C(=O)Nc1nncs1)C(c1cccc(F)c1)c1ccc(-c2ccc(C(=O)N3CCCC3)cc2)s1` (stereo not drawn) [Example 41, 3-(3-fluorophenyl)-2,2-dimethyl-3-(5-(4-(1-pyrrolidinylcarbonyl)phenyl)-2-thienyl)-N-1,3,4-thiadiazol-2-ylpropanamide], for the setting “Homo sapiens, A549, 7 h”, the Emax was determined as 65.5% and the EC50 is 6.5 nM.
Taken in the same sequence, the figures for `CN(C)C(=O)c1ccc(-c2ccc(C(c3cccc(F)c3)C(C)(C)C(=O)Nc3nccs3)s2)cc1` (stereo not drawn) [Example 42, 4-(5-(1-(3-Fluorophenyl)-2,2-dimethyl-3-oxo-3-(1,3-thiazol-2-ylamino)propyl)-2-thienyl)-N,N-dimethylbenzamide] were 42.9% and 11.6 nM.
On to `CN(C)C(=O)c1ccc(-c2ccc(C(c3ccccc3)C(C)(C)C(=O)Nc3nncs3)s2)cc1Cl` (stereo not drawn) [Example 43, 2-Chloro-4-(5-(2,2-dimethyl-3-oxo-1-phenyl-3-(1,3,4-thiadiazol-2-ylamino)propyl)-2-thienyl)-N,N-dimethylbenzamide], for which the concentration for a half-maximal effect (EC50) worked out at 10.7 nM. In addition, the Emax (Homo sapiens, A549, 7 h) came to 38.4%.
On to `CC(C)(C(=O)Nc1nncs1)C(c1ccccc1)c1ccc(-c2ccc(C(=O)N3CCOCC3)cc2)s1` (stereo not drawn) [Example 45, 2,2-dimethyl-3-(5-(4-(4-morpholinylcarbonyl)phenyl)-2-thienyl)-3-phenyl-N-1,3,4-thiadiazol-2-ylpropanamide], for which, where the note is “Homo sapiens, A549, 7 h”, the Emax came out at 51% and the EC50 turned out to be 5.88 nM.
Taken in the same sequence, the figures for `CC(C)(C(=O)Nc1nncs1)C(c1ccccc1)c1ccc(-c2ccc(C(=O)N3CCCC3)cc2)s1` (stereo not drawn) [Example 47, 2,2-dimethyl-3-phenyl-3-(5-(4-(1-pyrrolidinylcarbonyl)phenyl)-2-thienyl)-N-1,3,4-thiadiazol-2-ylpropanamide] were 39.9% and 3.71 nM.
Taken in the same sequence, the figures for `CCN(C)C(=O)c1ccc(-c2ccc(C(c3ccccc3)C(C)(C)C(=O)Nc3nncs3)s2)cc1` (stereo not drawn) [Example 50, 4-(5-(2,2-dimethyl-3-oxo-1-phenyl-3-(1,3,4-thiadiazol-2-ylamino)propyl)-2-thienyl)-N-ethyl-N-methylbenzamide] were 39.6% and 13.2 nM.
In the same order, the values of `CC(C)(C(=O)Nc1nncs1)C(c1ccccc1)c1ccc(-c2ccc(C(=O)N3CCOCC3)c(Cl)c2)s1` (stereo not drawn) [Example 52, 3-(5-(3-chloro-4-(4-morpholinylcarbonyl)phenyl)-2-thienyl)-2,2-dimethyl-3-phenyl-N-1,3,4-thiadiazol-2-ylpropanamide] are 38.5% and 12.1 nM.
As for `CN(C)C(=O)c1ccc(-c2ccc(C(c3ccccc3)C(C)(C)C(=O)Nc3nccs3)s2)cc1` (stereo not drawn) [Example 54, 4-(5-(2,2-Dimethyl-3-oxo-1-phenyl-3-(1,3-thiazol-2-ylamino)propyl)-2-thienyl)-N,N-dimethylbenzamide], under “Homo sapiens, A549, 7 h”, the Emax stood at 62.4% and the EC50 was 9.45 nM.
Take `CC(C)(C(=O)Nc1nncs1)[C@@H](c1cccc(F)c1)c1ccc(-c2ccc(C(=O)N3CCOCC3)cc2)s1` [Example 64, (3R)-3-(3-Fluorophenyl)-2,2-dimethyl-3-(5-(4-(4-morpholinylcarbonyl)phenyl)-2-thienyl)-N-1,3,4-thiadiazol-2-ylpropanamide]: under “Homo sapiens, A549, 7 h”, the Emax is 53.8% and the EC50 was determined as 3.04 nM.
Taken in the same sequence, the figures for `CN(C)C(=O)c1ccc(-c2ccc([C@H](c3cccc(F)c3)C(C)(C)C(=O)Nc3nncs3)s2)cc1` [Example 65, 4-(5-((1R)-1-(3-fluorophenyl)-2,2-dimethyl-3-oxo-3-(1,3,4-thiadiazol-2-ylamino)propyl)-2-thienyl)-N,N-dimethylbenzamide] were 49.6% and 7 nM.
Taken in the same sequence, the figures for `CN(C)C(=O)c1ccc(-c2ccc([C@H](c3cccc(F)c3)C(C)(C)C(=O)Nc3nncs3)s2)cc1Cl` [Example 66, 2-chloro-4-(5-((1R)-1-(3-fluorophenyl)-2,2-dimethyl-3-oxo-3-(1,3,4-thiadiazol-2-ylamino)propyl)-2-thienyl)-N,N-dimethylbenzamide] were 50.4% and 5.16 nM.
In the same order, the values of `CC(C)(C(=O)Nc1nncs1)[C@@H](c1cccc(F)c1)c1ccc(-c2ccc(C(=O)N3CCOCC3)c(Cl)c2)s1` [Example 67, (3R)-3-(5-(3-chloro-4-(4-morpholinylcarbonyl)phenyl)-2-thienyl)-3-(3-fluorophenyl)-2,2-dimethyl-N-1,3,4-thiadiazol-2-ylpropanamide] are 51.2% and 12.8 nM.
Turning to `CCN(C)C(=O)c1ccc(-c2ccc([C@H](c3cccc(F)c3)C(C)(C)C(=O)Nc3nncs3)s2)cc1` [Example 68, N-ethyl-4-(5-((1R)-1-(3-fluorophenyl)-2,2-dimethyl-3-oxo-3-(1,3,4-thiadiazol-2-ylamino)propyl)-2-thienyl)-N-methylbenzamide], where the note is “Homo sapiens, A549, 7 h”, the Emax came to 49.4% and the EC50 came out at 7.31 nM.
Taken in the same sequence, the figures for `CCN(CC)C(=O)c1ccc(-c2ccc([C@H](c3cccc(F)c3)C(C)(C)C(=O)Nc3nncs3)s2)cc1Cl` [Example 70, 2-chloro-N,N-diethyl-4-(5-((1R)-1-(3-fluorophenyl)-2,2-dimethyl-3-oxo-3-(1,3,4-thiadiazol-2-ylamino)propyl)-2-thienyl)benzamide] were 23% and 833 nM.
In the same order, the values of `CC(C)(C(=O)Nc1nncs1)[C@@H](c1cccc(F)c1)c1ccc(-c2ccc(C(=O)N3CCC(F)(F)C3)cc2)s1` [Example 79, (3R)-3-(5-(4-((3,3-difluoro-1-pyrrolidinyl)carbonyl)phenyl)-2-thienyl)-3-(3-fluorophenyl)-2,2-dimethyl-N-1,3,4-thiadiazol-2-ylpropanamide] are 42.6% and 30.3 nM.
Taken in the same sequence, the figures for `CCN(C)C(=O)c1ccc(-c2ccc([C@H](c3cccc(F)c3)C(C)(C)C(=O)Nc3nncs3)s2)cc1F` [Example 80, N-ethyl-2-fluoro-4-(5-((1R)-1-(3-fluorophenyl)-2,2-dimethyl-3-oxo-3-(1,3,4-thiadiazol-2-ylamino)propyl)-2-thienyl)-N-methylbenzamide] were 33.6% and 34.7 nM.
Turning to `CC(C)(C(=O)Nc1nncs1)[C@@H](c1cccc(F)c1)c1ccc(-c2ccc(C(=O)N3CCOCC3)c(F)c2)s1` [Example 83, (3R)-3-(5-(3-Fluoro-4-(4-morpholinylcarbonyl)phenyl)-2-thienyl)-3-(3-fluorophenyl)-2,2-dimethyl-N-1,3,4-thiadiazol-2-ylpropanamide], where the note is “Homo sapiens, A549, 7 h”, the Emax came out at 32.7% and the EC50 amounted to 16.6 nM.
Regarding `CN(C)C(=O)c1ccc(-c2ccc(C(c3ccccc3)C(C)(C)C(=O)Nc3nncs3)s2)cc1Cl` (stereo not drawn) [Example 86, 2-chloro-4-(5-(2,2-dimethyl-3-oxo-1-phenyl-3-(1,3,4-thiadiazol-2-ylamino)propyl)-2-thienyl)-N,N-dimethylbenzamide], the “AP-1 Max % inh (Cellular Transrepression Assay)” value turned out to be 36.20 % inh and the EC50 stood at 53.9 nM.
Turning to `CN(C)C(=O)c1ccc(-c2ccc(C(c3ccccc3)C(C)(C)C(=O)Nc3nncs3)s2)cc1` (stereo not drawn) [Example 87, 4-(5-(2,2-dimethyl-3-oxo-1-phenyl-3-(1,3,4-thiadiazol-2-ylamino)propyl)-2-thienyl)-N,N-dimethylbenzamide], under “Homo sapiens, A549, 7 h”, the Emax came to 41.1% and the EC50 came to 8.49 nM.
As to `CCN(C)C(=O)c1ccc(-c2ccc(C(c3ccccc3)C(C)(C)C(=O)Nc3nncs3)s2)cc1` (stereo not drawn) [Example 88, 4-(5-(2,2-dimethyl-3-oxo-1-phenyl-3-(1,3,4-thiadiazol-2-ylamino)propyl)-2-thienyl)-N-ethyl-N-methylbenzamide], the “AP-1 Max % inh (Cellular Transrepression Assay)” value was found to be 43.56 % inh and the EC50 was 15.7 nM.
With `CC(C)(C(=O)Nc1nncs1)C(c1cc(F)cc(F)c1)c1ccc(-c2ccc(C(=O)N3CCOCC3)cc2)s1` (stereo not drawn) [Example 89, 3-(3,5-difluorophenyl)-2,2-dimethyl-3-(5-(4-(4-morpholinylcarbonyl)phenyl)-2-thienyl)-N-1,3,4-thiadiazol-2-ylpropanamide], under “Homo sapiens, A549, 7 h”, the Emax was 36.7% and the EC50 was found to be 2.41 nM.
In the same order, the values of `CN(C)C(=O)c1ccc(-c2ccc(C(c3cc(F)cc(F)c3)C(C)(C)C(=O)Nc3nncs3)s2)cc1` (stereo not drawn) [Example 90, 4-(5-(1-(3,5-difluorophenyl)-2,2-dimethyl-3-oxo-3-(1,3,4-thiadiazol-2-ylamino)propyl)-2-thienyl)-N,N-dimethylbenzamide] are 32.7% and 20.6 nM.
With `C[C@@H](C(=O)Nc1nncs1)[C@@H](c1cccc(F)c1)c1ccc(Br)s1` [Example 96, (2R,3S)-3-(5-bromo-2-thienyl)-3-(3-fluorophenyl)-2-methyl-N-1,3,4-thiadiazol-2-ylpropanamide], where the note is “Homo sapiens, A549, 7 h”, the Emax stood at 27.4% and the EC50 is 71.1 nM.
Taken in the same sequence, the figures for `CCN(C)C(=O)c1ccc(-c2ccc([C@@H](c3cccc(F)c3)[C@@H](C)C(=O)Nc3nncs3)s2)cc1` [Example 107, N-ethyl-4-(5-((1R,2R)-1-(3-fluorophenyl)-2-methyl-3-oxo-3-(1,3,4-thiadiazol-2-ylamino)propyl)-2-thienyl)-N-methylbenzamide] were 52.5% and 15.9 nM.
